Experiment [1] in a line: potency of ADAM10 substrate cleavage blockers – biochemical, QFRET, dose response (AID 743254).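 Further: ADAM10 enzyme with the DM2 quenched FRET peptide as substrate; EDANS fluorescence gain as the protease cuts the substrate; inhibitor potency against ADAM10 proteolytic activity.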
Experiment [2] deals with Disintegrin and metalloproteinase domain-containing protein 17 (Homo sapiens, UniProt P78536). The experiment can be described thus: inhibition of ADAM17 substrate cleavage – biochemical, quenched FRET substrate, counter-screen for ADAM10 exosite inhibitor project, dose response (AID 743253). (In general: Counterscreens check selectivity or assay interference.)
Sequence of Disintegrin and metalloproteinase domain-containing protein 17 (P78536 whole entry, the tested form may be a part): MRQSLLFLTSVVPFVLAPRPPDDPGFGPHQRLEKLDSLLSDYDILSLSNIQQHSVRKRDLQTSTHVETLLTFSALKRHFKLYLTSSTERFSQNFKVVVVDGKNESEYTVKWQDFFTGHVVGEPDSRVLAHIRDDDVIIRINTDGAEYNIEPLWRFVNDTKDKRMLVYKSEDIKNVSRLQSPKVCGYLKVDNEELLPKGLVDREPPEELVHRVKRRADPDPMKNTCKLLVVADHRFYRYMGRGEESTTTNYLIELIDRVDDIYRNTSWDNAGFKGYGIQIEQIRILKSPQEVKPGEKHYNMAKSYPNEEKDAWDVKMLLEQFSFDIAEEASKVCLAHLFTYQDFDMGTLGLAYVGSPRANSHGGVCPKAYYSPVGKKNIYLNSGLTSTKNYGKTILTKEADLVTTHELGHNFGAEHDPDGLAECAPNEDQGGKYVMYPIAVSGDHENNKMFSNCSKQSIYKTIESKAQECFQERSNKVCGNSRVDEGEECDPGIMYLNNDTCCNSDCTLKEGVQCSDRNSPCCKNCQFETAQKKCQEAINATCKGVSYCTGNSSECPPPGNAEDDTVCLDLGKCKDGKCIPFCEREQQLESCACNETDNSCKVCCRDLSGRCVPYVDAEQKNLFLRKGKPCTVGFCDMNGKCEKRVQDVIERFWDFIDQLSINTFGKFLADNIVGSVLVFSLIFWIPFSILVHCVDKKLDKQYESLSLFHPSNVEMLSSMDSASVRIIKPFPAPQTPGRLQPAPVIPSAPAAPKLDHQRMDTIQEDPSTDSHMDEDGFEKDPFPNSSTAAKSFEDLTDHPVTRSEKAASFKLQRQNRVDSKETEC
The target of experiment [3] is Estrogen receptor beta (Homo sapiens, UniProt Q92731).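 Further: recombinant ER-beta bound to coactivator SRC1 peptide in presence of estradiol agonist; inhibitors block coactivator peptide binding and lower the FRET signal.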
Sequence of Estrogen receptor beta (Q92731 whole entry): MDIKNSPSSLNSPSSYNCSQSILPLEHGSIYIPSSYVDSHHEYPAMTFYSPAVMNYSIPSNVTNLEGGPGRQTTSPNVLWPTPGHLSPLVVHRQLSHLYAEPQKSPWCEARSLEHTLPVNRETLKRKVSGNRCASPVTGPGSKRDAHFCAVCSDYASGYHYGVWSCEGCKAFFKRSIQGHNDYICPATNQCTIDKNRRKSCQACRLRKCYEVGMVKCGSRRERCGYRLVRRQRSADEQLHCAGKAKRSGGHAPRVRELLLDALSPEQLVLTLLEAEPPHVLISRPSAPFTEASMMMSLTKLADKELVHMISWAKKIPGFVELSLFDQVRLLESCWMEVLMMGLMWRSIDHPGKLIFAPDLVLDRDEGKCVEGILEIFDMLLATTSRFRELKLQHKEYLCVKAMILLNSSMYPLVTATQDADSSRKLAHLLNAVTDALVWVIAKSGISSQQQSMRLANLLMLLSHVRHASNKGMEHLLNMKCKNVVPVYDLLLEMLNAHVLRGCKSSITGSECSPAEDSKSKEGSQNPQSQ
Experiment [4] has as its system HEK293. The experiment can be described thus: EBV LMP1 TES2 canonical NF-kB signalling blockers – cell-based, HEK293, luciferase, cherry-pick, dose response (AID 588343). The class given is functional. The conditions noted are these: Homo sapiens.
In experiment [5] the target is T1, Corticotropin-releasing factor receptor 2/Corticotropin-releasing factor-binding protein (Homo sapiens, UniProt P24387+Q13324).
T1 sequence (Q13324 whole entry): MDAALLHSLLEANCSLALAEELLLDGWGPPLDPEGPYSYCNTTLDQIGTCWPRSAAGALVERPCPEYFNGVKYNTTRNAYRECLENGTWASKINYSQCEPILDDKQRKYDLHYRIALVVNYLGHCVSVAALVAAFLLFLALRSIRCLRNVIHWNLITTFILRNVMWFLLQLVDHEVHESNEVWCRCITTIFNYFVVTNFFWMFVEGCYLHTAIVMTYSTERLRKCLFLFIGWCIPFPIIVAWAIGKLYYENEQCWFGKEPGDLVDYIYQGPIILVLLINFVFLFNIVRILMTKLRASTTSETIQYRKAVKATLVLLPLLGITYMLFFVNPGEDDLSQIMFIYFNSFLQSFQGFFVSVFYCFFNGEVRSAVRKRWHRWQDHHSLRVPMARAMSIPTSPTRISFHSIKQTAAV
T1 sequence (P24387 whole entry): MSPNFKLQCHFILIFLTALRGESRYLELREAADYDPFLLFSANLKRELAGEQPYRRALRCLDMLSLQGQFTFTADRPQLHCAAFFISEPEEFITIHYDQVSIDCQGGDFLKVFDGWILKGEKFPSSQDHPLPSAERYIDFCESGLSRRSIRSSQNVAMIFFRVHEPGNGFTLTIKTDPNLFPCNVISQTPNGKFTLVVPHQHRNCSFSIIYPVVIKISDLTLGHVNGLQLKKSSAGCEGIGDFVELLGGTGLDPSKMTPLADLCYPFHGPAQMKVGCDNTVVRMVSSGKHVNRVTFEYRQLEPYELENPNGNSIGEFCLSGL
The experiment can be described thus: activators of CRF receptor 2 with binding protein – uHTS hits, confirmation (AID 602473). The following applies: read-out: EC50_Mean. The class given is functional.

Experiment [6] can be described thus: blockers of HIV-1 envelope-mediated cell-cell fusion – cherry-pick, dose response (AID 652057). The experiment is classed as functional, cell-based.
The nature of experiment [7]: viability loss in CEM21 cells – cell-based, CellTiter-Glo luminescence, cherry-picked, cytotoxicity control for viral fusion inhibitor project, dose response (AID 652042).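 Further: potency for signal decrease meaning cytotoxicity.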 The experiment is classed as functional. On the technique in general: In ATP-based viability assays light output follows the ATP content of the culture.
Experiment [8] can be described thus: blockers of HIV-1 ZM109 envelope-driven cell-cell fusion – HeLa effector, CEM target cells, luciferase, cherry-pick, dose response (AID 652058).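 Further: luciferase signal from HIV-1 Env mediated cell-cell fusion of effector and target cells.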 The class given is functional, cell-based.
The target of experiment [9] is Paired box protein Pax-8 (Homo sapiens, UniProt Q06710). Description: PAX8 transcriptional activity inhibition in RMG-I – RMG-I cells, luciferase, cherry-pick, dose response (AID 687027).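 Further: luciferase reporter driven by Pax8 target thyroperoxidase promoter measured by SteadyGlo luminescence.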 The experiment is classed as functional, cell-based.
Sequence of Paired box protein Pax-8 (Q06710 whole entry, the tested form may be a part): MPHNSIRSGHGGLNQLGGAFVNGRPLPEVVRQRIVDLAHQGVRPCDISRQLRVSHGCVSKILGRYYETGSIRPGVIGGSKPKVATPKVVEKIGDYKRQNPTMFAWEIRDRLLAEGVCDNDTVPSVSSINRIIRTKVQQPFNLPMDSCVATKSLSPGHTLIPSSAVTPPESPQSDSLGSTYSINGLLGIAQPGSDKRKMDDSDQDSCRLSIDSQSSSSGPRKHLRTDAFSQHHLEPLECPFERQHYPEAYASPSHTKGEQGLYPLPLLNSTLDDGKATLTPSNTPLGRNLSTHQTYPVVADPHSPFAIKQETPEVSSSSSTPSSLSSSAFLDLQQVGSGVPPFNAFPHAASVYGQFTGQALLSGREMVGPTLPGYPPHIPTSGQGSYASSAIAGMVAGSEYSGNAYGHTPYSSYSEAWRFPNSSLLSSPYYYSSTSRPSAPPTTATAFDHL
A short description of experiment [10]: off-target signal loss in HeLa-CEM21 co-culture – HeLa F-luc CTL cells, cherry-picked, counter-screen for HIV-1 Env fusion inhibitor project, dose response (AID 652040).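 Further: potency for signal decrease marking cytotoxic or nonspecific inhibition.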 The experiment is classed as functional, cell-based.
Experiment [11] is described as follows: HIV-1 AD8 envelope cell-cell fusion blockers – cherry-pick, dose response (AID 652062).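 Further: luciferase signal from cell-cell fusion driven by HIV-1 clade B AD8 Env; potency is for inhibitors of fusion seen as a drop in luminescence.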 The class given is functional, cell-based.
Experiment [12] in a line: A549 cell cytotoxicity, dose response, cytotoxicity control, plate reader, cherry-pick, antagonist series (AID 743412). The class given is functional, cell-based.
Experiment [13] in a line: toxicity toward HepG2 liver cells – cell-based, plate reader, cherry-pick, antagonist series, cytotoxicity control, dose response (AID 743416). The class given is functional.
Experiment [14] in a line: blockers of bursicon-stimulated LGR2 cAMP reporter – cell-based, HEK293, CRE-luciferase reporter, cherry pick, set 2, dose response (AID 743343).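 Further: transfected cells were stimulated with diluted bursicon conditioned medium after compound addition.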 The experiment is classed as functional.
A short description of experiment [15]: general cell-killing toxicity readout – plate reader, dry powder samples, cytotoxicity control for PAX8 inhibitor project, dose response (AID 743021). The class given is functional, cell-based.
A short description of experiment [16]: blockade of melanocortin 4 receptor signaling – cell-based, plate reader, cherry pick, counter-screen for LGR2 antagonist project, dose response (AID 743444).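 Further: transfected HEK 293 cells stimulated with alpha-MSH peptide; potency of inhibitors of the alpha-MSH evoked signal.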 The experiment is classed as functional.
Experiment [17] in a line: viability loss in HEK293 cells – cell-based, plate reader, cherry-picked samples, cytotoxicity control, dose response (AID 743446). The class given is functional.
The target of experiment [18] is T2, Methionyl-tRNA synthetase, putative (Trypanosoma brucei brucei, UniProt Q38C91).
T2 sequence (Q38C91 whole entry): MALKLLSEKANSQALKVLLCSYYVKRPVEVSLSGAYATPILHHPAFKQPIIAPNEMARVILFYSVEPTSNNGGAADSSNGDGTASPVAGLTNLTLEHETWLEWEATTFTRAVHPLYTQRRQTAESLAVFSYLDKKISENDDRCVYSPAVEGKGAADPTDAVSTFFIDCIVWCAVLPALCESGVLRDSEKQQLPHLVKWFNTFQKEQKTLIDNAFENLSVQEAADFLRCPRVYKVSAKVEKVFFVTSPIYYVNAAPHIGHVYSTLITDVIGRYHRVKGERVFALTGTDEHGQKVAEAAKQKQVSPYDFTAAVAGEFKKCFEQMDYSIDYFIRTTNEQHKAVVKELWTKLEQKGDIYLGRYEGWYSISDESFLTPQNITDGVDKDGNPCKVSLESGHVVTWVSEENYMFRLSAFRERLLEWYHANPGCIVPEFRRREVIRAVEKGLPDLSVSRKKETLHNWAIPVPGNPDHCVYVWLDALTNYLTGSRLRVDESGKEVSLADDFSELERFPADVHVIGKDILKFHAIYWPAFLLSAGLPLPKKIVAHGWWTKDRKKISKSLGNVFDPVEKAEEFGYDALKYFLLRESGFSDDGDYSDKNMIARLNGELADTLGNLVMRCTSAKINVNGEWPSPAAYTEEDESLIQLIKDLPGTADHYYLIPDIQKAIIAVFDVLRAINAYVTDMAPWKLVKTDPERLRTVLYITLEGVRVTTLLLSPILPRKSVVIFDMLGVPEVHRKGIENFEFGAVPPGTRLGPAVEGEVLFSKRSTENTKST
The class given is functional, Trypanosoma brucei brucei strain 927/4 GUTat10.1.

Experiment [19] is described as follows: Counterscreen for inhibitors of Trypanosoma brucei methionyl tRNA synthetase (MetRS): Luminescence-based cell-based high throughput dose response assay to identify compounds that are cytotoxic to Jurkat human T lymphocyte cells. The experiment is classed as functional.
Experiment [20] concerns the target T2, Methionyl-tRNA synthetase, putative. The class given is functional, Trypanosoma brucei brucei strain 927/4 GUTat10.1. This is another data set of the same source.
A short description of experiment [21]: Late stage counterscreen for inhibitors of Trypanosoma brucei methionyl tRNA synthetase (MetRS): Luminescence-based cell-based high throughput dose response assay to identify compounds that are cytotoxic to Jurkat human T lymphocyte cells. The class given is functional.
Experiment [22] has as its target E3 ubiquitin-protein ligase Mdm2 (Homo sapiens, UniProt Q00987). Description: MDM2-luc reporter signal enhancers, multi-concentration potency testing, MDM2 ubiquitin-protein ligase inhibitor program, whole-cell format, luminescence detection, 384-well microplate (AID 1394).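 Further: MDM2 E3 inhibitors raise luminescence so EC50 is for signal enhancement.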 The experiment is classed as functional.
For experiment [23], the target named is Luciferin 4-monooxygenase (Photinus pyralis, UniProt P08659). Description: inhibition of purified Photinus pyralis luciferase – biochemical, luminescence, dose response (AID 1891).
Sequence of Luciferin 4-monooxygenase (P08659 whole entry): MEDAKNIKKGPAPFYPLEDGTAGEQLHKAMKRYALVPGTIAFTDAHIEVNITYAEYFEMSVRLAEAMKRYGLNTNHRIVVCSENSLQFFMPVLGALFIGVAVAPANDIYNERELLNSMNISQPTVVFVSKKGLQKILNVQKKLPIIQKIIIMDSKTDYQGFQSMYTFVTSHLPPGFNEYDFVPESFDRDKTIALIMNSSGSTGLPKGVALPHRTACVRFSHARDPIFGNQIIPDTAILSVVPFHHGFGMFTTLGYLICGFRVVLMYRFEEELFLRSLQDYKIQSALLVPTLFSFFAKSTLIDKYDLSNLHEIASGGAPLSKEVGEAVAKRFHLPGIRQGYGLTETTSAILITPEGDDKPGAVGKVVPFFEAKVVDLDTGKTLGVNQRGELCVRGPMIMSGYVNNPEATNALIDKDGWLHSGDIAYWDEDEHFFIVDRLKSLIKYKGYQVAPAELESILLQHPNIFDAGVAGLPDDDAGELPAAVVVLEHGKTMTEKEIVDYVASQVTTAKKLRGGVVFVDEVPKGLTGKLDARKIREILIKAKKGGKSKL
A short description of experiment [24]: Luminescence Cell-Based Dose Confirmation HTS to Identify Inhibitors of Platelet Dense Granule Release. [Related pubchem assays: 1663 (Primary HTS), 1678 (Summary of Project)]. The class given is functional.

The source made the active and inactive calls. Some results are limits rather than exact numbers.

Sequence of E3 ubiquitin-protein ligase Mdm2 (Q00987 whole entry): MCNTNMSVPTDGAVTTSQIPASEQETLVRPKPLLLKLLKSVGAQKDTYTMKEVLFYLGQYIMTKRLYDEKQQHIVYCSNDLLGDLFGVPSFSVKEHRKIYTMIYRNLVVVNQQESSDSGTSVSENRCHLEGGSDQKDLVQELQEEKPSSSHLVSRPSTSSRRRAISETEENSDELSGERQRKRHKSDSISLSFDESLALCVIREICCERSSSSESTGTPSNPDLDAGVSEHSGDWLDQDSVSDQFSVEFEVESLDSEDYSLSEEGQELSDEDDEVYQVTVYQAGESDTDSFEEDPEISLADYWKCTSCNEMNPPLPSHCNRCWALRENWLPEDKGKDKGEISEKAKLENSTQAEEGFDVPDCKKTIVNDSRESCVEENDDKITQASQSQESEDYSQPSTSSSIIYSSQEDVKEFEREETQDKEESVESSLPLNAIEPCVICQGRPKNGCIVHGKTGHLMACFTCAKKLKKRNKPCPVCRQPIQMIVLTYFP

As to `CC(C)(C)c1ccc(-c2nnc(SCC(=O)Nc3ccc(S(=O)(=O)Nc4nccs4)cc3)n2-c2ccc(Cl)cc2)cc1`, the IC50 (as a rule, the concentration that inhibits the measured activity by half) in [1] is 10.6 µM (inactive); in experiment [2], > 69.5 µM (inactive).

With `CC(C)CC(OC(=O)c1cccs1)C(=O)NCc1ccco1` (centres undefined), the IC50 in experiment [3] is > 50 µM (not active).

For the molecule `C(=Cc1cnc2ccccc2n1)c1ccc2c(c1)OCO2`, the half-maximal activity concentration (AC50) (as a rule, the concentration at which the activity in the assay is half-maximal) was 0.173 µM (active) in [4]; 2.05 µM (active) in experiment [6]; 42.1 µM (active) in [7]; 13.5 µM (active) in [8]; 2.92 µM (active) in experiment [9]; 4.37 µM (active) in experiment [10]. The AC50 was 3.91 µM (active) in experiment [11]; 10.7 µM (active) in experiment [12]; 24.6 µM (active) in [13]; 0.263 µM (active) in experiment [14]; 6.27 µM (active) in experiment [15]; 0.25 µM (active) in experiment [16]. Moreover, the AC50 in [17] was 17 µM (active). For the same molecule, the EC50 in experiment [5] is > 53 µM (inactive).

Consider `O=C(OCC(=O)N1CCCC1)c1cncc(Br)c1`, for which the 50% inhibitory concentration (IC50) in experiment [3] is > 50 µM (not active).

As for `COc1ccc2[nH]c3nc(SCC(=O)Nc4ccc5c(c4)OCO5)nnc3c2c1`, the concentration for half-maximal inhibition (IC50) in experiment [18] is 1.33 µM (active); in [19], 24.5 µM (inactive); in experiment [20], 0.489 µM (active); in experiment [21], 36.6 µM (inactive).

For the molecule `COc1ccc2[nH]c3c(N4CC(C)OC(C)C4)ncnc3c2c1` (centres undefined), in experiment [22], the EC50 was 7.39 µM (not active).

On to `CC(C)(C)[C@@H]1C=C(C(=O)NCc2nc3ccccc3[nH]2)O[C@H](OCc2ccc(CO)cc2)C1`, for which, in [21], the IC50 was > 83.3 µM (inactive).

`O=C(Cc1ccc(-n2c(=O)c3ccccc3n(Cc3ccccc3Cl)c2=O)cc1)NCC1CCCO1` (centres undefined): the EC50 in experiment [22] is 8.14 µM (not active); in experiment [23], > 112 µM (not active); in experiment [24], > 112 µM (not active).

On to `CCCCn1c(SCc2nc(N)nc(Nc3ccccc3C)n2)nc2ccccc2c1=O`, for which the IC50 in experiment [1] and in [2] was > 69.5 µM (inactive) each time.

Take `O=C(Cn1cnc2ccccc21)Nc1cccc([N+](=O)[O-])c1`: the concentration for half-maximal inhibition (IC50) in [18] was 3.47 µM (active); in experiment [19], 83.1 µM (inactive); in [20], 1.76 µM (active); in experiment [21], > 83.3 µM (inactive).

Regarding `Cc1ccc(C(=S)NCS(=O)(=O)c2ccc(C)cc2)cc1`, the IC50 in experiment [2] was 14.5 µM (inactive).

Values taken from ChEMBL document CHEMBL1201862, “PubChem BioAssay data set” (2004).
